Measured values taken from ChEMBL document CHEMBL1126615, “Structure-activity relationships in prazosin-related compounds. 2. Role of the piperazine ring on alpha-blocking activity” (J Med Chem, 1993).

Legend:
[1] = The alpha1/alpha2 selectivity ratio is the antilog of the difference between pA2 values at alpha1 and alpha-2 adrenoceptor; assay type: functional
[2] = biological target: T1, Adrenergic receptor alpha-1 (Rattus norvegicus, UniProt P15823+P23944+P43140); experiment: Alpha-1 Adrenoceptor blocking activity as antagonism of norepinephrine-induced contractions of epididymal portion of rat vas deferens; assay type: functional, tissue-based
T1 sequence (P15823 whole entry): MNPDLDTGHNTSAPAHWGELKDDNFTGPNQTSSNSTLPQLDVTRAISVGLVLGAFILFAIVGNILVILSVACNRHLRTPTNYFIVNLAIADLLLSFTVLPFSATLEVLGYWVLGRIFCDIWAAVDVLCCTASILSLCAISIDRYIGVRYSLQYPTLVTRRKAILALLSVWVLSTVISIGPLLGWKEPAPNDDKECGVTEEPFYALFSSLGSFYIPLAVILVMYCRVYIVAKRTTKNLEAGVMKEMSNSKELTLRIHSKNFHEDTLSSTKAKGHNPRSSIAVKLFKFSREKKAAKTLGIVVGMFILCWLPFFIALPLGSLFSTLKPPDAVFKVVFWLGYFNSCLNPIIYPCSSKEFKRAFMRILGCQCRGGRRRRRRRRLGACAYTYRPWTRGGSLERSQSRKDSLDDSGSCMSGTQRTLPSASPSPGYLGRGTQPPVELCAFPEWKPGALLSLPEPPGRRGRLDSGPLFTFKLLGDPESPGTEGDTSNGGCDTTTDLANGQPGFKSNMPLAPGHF
T1 sequence (P23944 whole entry): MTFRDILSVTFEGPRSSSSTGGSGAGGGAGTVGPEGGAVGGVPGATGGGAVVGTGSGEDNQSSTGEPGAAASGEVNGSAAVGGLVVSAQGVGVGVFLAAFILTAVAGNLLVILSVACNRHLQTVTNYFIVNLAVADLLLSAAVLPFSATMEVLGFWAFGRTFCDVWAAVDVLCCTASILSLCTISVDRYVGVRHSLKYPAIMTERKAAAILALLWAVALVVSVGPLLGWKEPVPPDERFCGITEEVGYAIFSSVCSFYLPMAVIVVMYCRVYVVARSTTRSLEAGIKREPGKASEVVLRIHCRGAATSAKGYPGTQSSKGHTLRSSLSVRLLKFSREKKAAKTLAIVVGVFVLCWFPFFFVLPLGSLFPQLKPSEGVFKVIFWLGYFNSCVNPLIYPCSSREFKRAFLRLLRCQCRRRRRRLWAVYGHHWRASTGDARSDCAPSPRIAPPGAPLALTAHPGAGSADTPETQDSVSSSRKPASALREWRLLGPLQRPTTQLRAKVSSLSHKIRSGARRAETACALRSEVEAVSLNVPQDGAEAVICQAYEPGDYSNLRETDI
T1 sequence (P43140 whole entry): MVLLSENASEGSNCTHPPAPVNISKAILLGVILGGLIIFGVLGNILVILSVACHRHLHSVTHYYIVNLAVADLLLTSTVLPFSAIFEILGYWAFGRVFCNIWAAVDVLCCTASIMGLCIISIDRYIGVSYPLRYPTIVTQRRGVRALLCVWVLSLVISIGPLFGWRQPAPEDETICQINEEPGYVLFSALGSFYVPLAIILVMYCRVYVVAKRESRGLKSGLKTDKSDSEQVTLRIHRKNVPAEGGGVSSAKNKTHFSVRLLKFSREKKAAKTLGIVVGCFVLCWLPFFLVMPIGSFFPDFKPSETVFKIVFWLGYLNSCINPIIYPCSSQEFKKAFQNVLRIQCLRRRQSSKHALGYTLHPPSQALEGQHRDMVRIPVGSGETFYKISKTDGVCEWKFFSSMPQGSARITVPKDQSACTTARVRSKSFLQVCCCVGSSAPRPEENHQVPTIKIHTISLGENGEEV

[3] = biological target: T2, Adrenergic receptor alpha-2 (Rattus norvegicus, UniProt P22086+P19328+P22909); experiment: Alpha-2 Adrenoceptor blocking activity as antagonism of clonidine-induced depression of field-stimulated prostatic rat vas deferens; assay type: functional, tissue-based
T2 sequence (P22086 whole entry): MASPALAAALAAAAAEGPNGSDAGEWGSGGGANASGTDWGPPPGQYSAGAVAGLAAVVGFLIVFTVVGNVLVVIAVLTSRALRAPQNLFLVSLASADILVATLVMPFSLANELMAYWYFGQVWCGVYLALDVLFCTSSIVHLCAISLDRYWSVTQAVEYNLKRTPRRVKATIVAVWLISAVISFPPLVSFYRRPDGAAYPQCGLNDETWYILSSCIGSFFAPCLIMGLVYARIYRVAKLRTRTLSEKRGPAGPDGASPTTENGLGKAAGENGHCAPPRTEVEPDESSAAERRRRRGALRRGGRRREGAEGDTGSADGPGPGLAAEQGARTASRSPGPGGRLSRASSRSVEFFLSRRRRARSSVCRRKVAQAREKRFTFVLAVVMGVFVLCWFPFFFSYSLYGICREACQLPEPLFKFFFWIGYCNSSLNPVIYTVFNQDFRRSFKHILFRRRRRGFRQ
T2 sequence (P19328 whole entry): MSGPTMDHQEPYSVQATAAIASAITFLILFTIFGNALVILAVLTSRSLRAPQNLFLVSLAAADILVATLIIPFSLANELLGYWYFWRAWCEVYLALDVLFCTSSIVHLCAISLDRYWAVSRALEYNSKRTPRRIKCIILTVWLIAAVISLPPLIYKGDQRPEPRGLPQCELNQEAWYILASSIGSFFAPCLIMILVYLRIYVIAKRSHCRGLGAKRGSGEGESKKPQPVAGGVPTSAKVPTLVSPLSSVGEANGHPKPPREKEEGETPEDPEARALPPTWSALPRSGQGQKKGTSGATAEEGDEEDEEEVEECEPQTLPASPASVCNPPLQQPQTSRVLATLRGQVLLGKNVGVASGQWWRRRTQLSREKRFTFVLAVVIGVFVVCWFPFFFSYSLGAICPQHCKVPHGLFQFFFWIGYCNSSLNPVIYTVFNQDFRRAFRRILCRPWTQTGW
T2 sequence (P22909 whole entry): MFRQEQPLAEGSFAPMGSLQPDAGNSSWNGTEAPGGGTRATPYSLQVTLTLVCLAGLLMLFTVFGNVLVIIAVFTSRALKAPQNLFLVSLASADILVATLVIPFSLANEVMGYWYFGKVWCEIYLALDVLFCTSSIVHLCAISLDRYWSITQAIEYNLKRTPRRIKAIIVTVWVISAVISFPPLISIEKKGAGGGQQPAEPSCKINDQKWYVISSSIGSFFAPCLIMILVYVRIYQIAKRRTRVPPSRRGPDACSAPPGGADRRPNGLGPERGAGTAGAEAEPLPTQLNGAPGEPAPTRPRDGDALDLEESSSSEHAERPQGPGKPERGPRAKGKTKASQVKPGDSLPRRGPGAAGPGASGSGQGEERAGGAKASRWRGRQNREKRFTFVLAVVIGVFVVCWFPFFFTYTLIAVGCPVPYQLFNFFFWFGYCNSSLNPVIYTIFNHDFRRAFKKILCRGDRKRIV

SMILES | Selectivity ratio [1] | pA2 [2] | pA2 [3]
COc1cc2nc(N3CCN(C(=O)c4ccco4)C(C)C3)nc(N)c2cc1OC (stereo not drawn) | 2100 | 8.61 | 5.23
COc1cc2nc(N3CCN(C(=O)c4ccco4)C[C@H]3C)nc(N)c2cc1OC | 150 | 8.13 | 5.94
COc1cc2nc(N(C)CCCCCCN(C)C(=O)c3ccco3)nc(N)c2cc1OC | 120 | – | –
COc1cc2nc(NC3CCCCC3NC(=O)c3ccco3)nc(N)c2cc1OC (cis isomer) [listing 1 of 2 here] | – | 5.74 | 5.96
COc1cc2nc(NC3CCCCC3NC(=O)c3ccco3)nc(N)c2cc1OC (cis isomer) [listing 2 of 2 here] | 0.6 | – | –
COc1cc2nc(N(C)[C@@H]3CCCCC3N(C)C(=O)c3ccco3)nc(N)c2cc1OC (stereo in doubt; 5) [listing 1 of 2 here] | – | 5.8 | 5.41
COc1cc2nc(N(C)[C@@H]3CCCCC3N(C)C(=O)c3ccco3)nc(N)c2cc1OC (stereo in doubt; 5) [listing 2 of 2 here] | 2.5 | – | –
COc1cc2nc(N(C)[C@@H]3CCCCC3N(C)C(=O)c3ccco3)nc(N)c2cc1OC (stereo in doubt; 6) [listing 1 of 2 here] | – | 5.64 | 5.54
COc1cc2nc(N(C)[C@@H]3CCCCC3N(C)C(=O)c3ccco3)nc(N)c2cc1OC (stereo in doubt; 6) [listing 2 of 2 here] | 1.2 | – | –
COc1cc2nc(N3CCN(C(=O)c4ccco4)C(C)[C@H]3C)nc(N)c2cc1OC (stereo in doubt; 9) [listing 1 of 2 here] | – | 8.75 | 6.41
COc1cc2nc(N3CCN(C(=O)c4ccco4)C(C)[C@H]3C)nc(N)c2cc1OC (stereo in doubt; 9) [listing 2 of 2 here] | 220 | – | –
COc1cc2nc(N3CCN(C(=O)c4ccco4)C(C)[C@H]3C)nc(N)c2cc1OC (stereo in doubt; 10) [listing 1 of 2 here] | – | 7.12 | 4.86
COc1cc2nc(N3CCN(C(=O)c4ccco4)C(C)[C@H]3C)nc(N)c2cc1OC (stereo in doubt; 10) [listing 2 of 2 here] | 180 | – | –
CCC1[C@@H](CC)N(c2nc(N)c3cc(OC)c(OC)cc3n2)CCN1C(=O)c1ccco1 (stereo in doubt; 11) [listing 1 of 2 here] | – | 8.55 | 5.91
CCC1[C@@H](CC)N(c2nc(N)c3cc(OC)c(OC)cc3n2)CCN1C(=O)c1ccco1 (stereo in doubt; 11) [listing 2 of 2 here] | 440 | – | –
CCC1[C@@H](CC)N(c2nc(N)c3cc(OC)c(OC)cc3n2)CCN1C(=O)c1ccco1 (stereo in doubt; 12) [listing 1 of 2 here] | – | 7.09 | 5.05
CCC1[C@@H](CC)N(c2nc(N)c3cc(OC)c(OC)cc3n2)CCN1C(=O)c1ccco1 (stereo in doubt; 12) [listing 2 of 2 here] | 110 | – | –
COc1cc2nc(N3CCN(C(=O)c4ccco4)C4CCCC[C@@H]43)nc(N)c2cc1OC (stereo in doubt; 13) | – | – | 5.08
COc1cc2nc(N3CCN(C(=O)c4ccco4)C4CCCC[C@@H]43)nc(N)c2cc1OC (stereo in doubt; 14) | – | – | 5.15
COc1cc2nc(NC3CCCCC3NC(=O)c3ccco3)nc(N)c2cc1OC (trans isomer) [listing 1 of 2 here] | – | 6.07 | 5.04
COc1cc2nc(NC3CCCCC3NC(=O)c3ccco3)nc(N)c2cc1OC (trans isomer) [listing 2 of 2 here] | 11 | – | –
